From paper PMC9324074, “Novel Insights on Human Carbonic Anhydrase Inhibitors Based on Coumalic Acid: Design, Synthesis, Molecular Modeling Investigation, and Biological Studies” (International Journal of Molecular Sciences, 2022)
Where two headings read alike, the source gives them in different places.

Key:
Assay in all cases: stopped-flow CO2 hydrase assay
Format in all cases: biochemical
[1] = molecular target: T1, hCA I (Homo sapiens, UniProt P00915)
T1 construct: gene CA1; recombinant, obtained in house
T1 sequence (P00915 2-261): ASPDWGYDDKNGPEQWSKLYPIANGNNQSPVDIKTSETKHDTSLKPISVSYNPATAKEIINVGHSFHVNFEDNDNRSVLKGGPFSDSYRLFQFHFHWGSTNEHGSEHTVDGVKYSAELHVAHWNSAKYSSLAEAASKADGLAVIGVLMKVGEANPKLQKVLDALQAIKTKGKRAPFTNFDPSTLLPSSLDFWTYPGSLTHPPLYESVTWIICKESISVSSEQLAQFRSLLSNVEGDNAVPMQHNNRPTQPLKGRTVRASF
From the text: stopped-flow CO2 hydrase assay on hCA I

[2] = molecular target: T2, hCA II (Homo sapiens, UniProt P00918); details: read-out: KI (μM) ^a / hCA I
T2 construct: gene CA2; recombinant, obtained in house
From the text: stopped-flow CO2 hydrase assay on hCA II

[3] = molecular target: T3, hCA IX (Homo sapiens, UniProt Q16790)
T3 construct: gene CA9; recombinant, obtained in house
From the text: stopped-flow CO2 hydrase assay on hCA IX

[4] = molecular target: T4, hCA XII (Homo sapiens, UniProt O43570)
T4 construct: gene CA12; recombinant, obtained in house
T4 sequence (O43570 30-289 limits assumed): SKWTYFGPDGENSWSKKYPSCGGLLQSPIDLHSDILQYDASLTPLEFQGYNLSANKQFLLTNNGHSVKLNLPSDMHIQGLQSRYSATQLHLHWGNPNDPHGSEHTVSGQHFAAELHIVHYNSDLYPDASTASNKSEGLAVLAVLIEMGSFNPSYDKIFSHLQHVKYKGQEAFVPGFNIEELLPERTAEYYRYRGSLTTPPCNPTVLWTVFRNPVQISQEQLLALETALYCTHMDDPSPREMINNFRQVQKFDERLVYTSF
From the text: stopped-flow CO2 hydrase assay on hCA XII

[5] = pH […] ([…] Hepes), […] Na2SO4, […] min preincubation at room temperature

| Ki [1] [µM] | Ki [2] [µM] | Ki [3] [µM] | Ki [4] [µM] | Ki [1, 5] [µM] | Ki [2, 5] [µM] | Ki [3, 5] [µM] | Ki [4, 5] [µM] | Molecule |
| --- | --- | --- | --- | --- | --- | --- | --- | --- |
| > 100 | > 100 | 0.073 | 0.083 | – | – | – | – | O=C(O)c1ccc(=O)oc1 [compound 1, coumalic acid] |
| > 100 | > 100 | 3 | 0.7 | – | – | – | – | O=C(Nc1ccccc1)c1ccc(=O)oc1 [compound 2, 2-Oxo-N-phenyl-2H-pyran-5-carboxamide] |
| > 100 | > 100 | 2.9 | 0.8 | – | – | – | – | Cc1ccc(NC(=O)c2ccc(=O)oc2)cc1 [compound 3, 2-Oxo-N-(p-tolyl)-2H-pyran-5-carboxamide] |
| > 100 | > 100 | 0.174 | 0.09 | – | – | – | – | Cc1cccc(NC(=O)c2ccc(=O)oc2)c1 [compound 4, 2-Oxo-N-(m-tolyl)-2H-pyran-5-carboxamide] |
| > 100 | > 100 | 0.273 | 0.068 | – | – | – | – | CC(C)c1ccc(NC(=O)c2ccc(=O)oc2)cc1 [compound 5, N-(4-Isopropylphenyl)-2-oxo-2H-pyran-5-carboxamide] |
| > 100 | > 100 | 3.1 | 0.7 | – | – | – | – | COc1ccc(NC(=O)c2ccc(=O)oc2)cc1 [compound 6, N-(4-Methoxyphenyl)-2-oxo-2H-pyran-5-carboxamide] |
| > 100 | > 100 | 0.315 | 0.265 | – | – | – | – | COc1cccc(NC(=O)c2ccc(=O)oc2)c1 [compound 7, N-(3-Methoxyphenyl)-2-oxo-2H-pyran-5-carboxamide] |
| > 100 | > 100 | 3.2 | 0.7 | – | – | – | – | O=C(Nc1ccc(Cl)cc1)c1ccc(=O)oc1 [compound 8, N-(4-Chlorophenyl)-2-oxo-2H-pyran-5-carboxamide] |
| > 100 | > 100 | 0.082 | 0.089 | – | – | – | – | O=C(Nc1ccc(Br)cc1)c1ccc(=O)oc1 [compound 9, N-(4-Bromophenyl)-2-oxo-2H-pyran-5-carboxamide] |
| > 100 | > 100 | 0.281 | 0.081 | – | – | – | – | O=C(Nc1ccccc1I)c1ccc(=O)oc1 [compound 10, N-(2-Iodophenyl)-2-oxo-2H-pyran-5-carboxamide] |
| > 100 | > 100 | 0.083 | 0.076 | – | – | – | – | O=C(Nc1ccc(-c2ccccc2)cc1)c1ccc(=O)oc1 [compound 11, N-([1,1′-Biphenyl]-4-yl)-2-oxo-2H-pyran-5-carboxamide] |
| > 100 | > 100 | 0.146 | 0.08 | – | – | – | – | O=C(Nc1ccccc1Cc1ccccc1)c1ccc(=O)oc1 [compound 12, N-(2-Benzylphenyl)-2-oxo-2H-pyran-5-carboxamide] |
| > 100 | > 100 | 3.69 | 0.094 | – | – | – | – | O=C(Nc1cccc2ccccc12)c1ccc(=O)oc1 [compound 13, N-(Naphthalen-1-yl)-2-oxo-2H-pyran-5-carboxamide] |
| > 100 | > 100 | 0.098 | 0.086 | – | – | – | – | O=C(NC1CCCCC1)c1ccc(=O)oc1 [compound 14, N-Cyclohexyl-2-oxo-2H-pyran-5-carboxamide] |
| – | – | – | – | > 100 | > 100 | 0.326 | 0.087 | N-(3-Morpholinopropyl)-2-oxo-2H-pyran-5-carboxamide [compound 15] |
